Experimental data taken from patent US8357671B2, “High affinity Siglec ligands” (priority 2005, dated 2013).
Where “and” joins values, the source holds several entries; their conditions need not be identical. Equal entries are not always repeated.

How the values were obtained:
mouse CD22 = target: T1, mouse CD22 (Mus musculus, UniProt P35329); test: ELISA inhibition assay: CD22-Fc chimera binding to immobilized NeuGc-LN; details: for IC50: inhibition of CD22-Fc binding to immobilized NeuGcα2,6LacNAc, read-out: IC 50 value mCd22; for rIP mCd22 (relative inhibitory potency): relative to NeuGc-LN = 1
T1 construct: made in house
Experimental: (§1) FIG. 1A-B illustrate that sialosides with derivation at position 9 that includes a neutral core and a hydrophobic moiety are potent inhibitors for CD22. Similar inhibitors can be made by derivation at position 5. […] FIG. 1B graphically illustrates competitive inhibition of selected sialoside inhibitors. Inhibitors were added with soluble CD22-Fc chimeras to block the chimera binding to immobilized NeuAcα2-6Galβ1-4GlcNAc (NeuAc-LN, human CD22, hCD22) or NeuGcα2,6Galβ1-4GlcNAc (NeuGc-LN, mouse CD22, mCD22). Data are the average +/−S.D. of triplicate determinations and are representative of two individual assays.
(§2) ELISA inhibition assays: For inhibition assays, high binding 96 well microtiter plates (Corning Costar) were coated with neutravidin by incubation with 50 ul of 1 mg/ml Neutravidin (Pierce Biotechnology) in 50 mM Na bicarbonate pH 9.5 overnight at 4° C. The wells were then washed with PBS and blocked with PBS containing 5 mg/ml BSA for 1 hr at 37° C. Fifty microliters of a selected biotinylated sialoside (0.33 uM) was added to each well, and allowed to bind for 1 hr at room temperature. The sialoside was then allowed to bind for 1 hr at 37° C. and the wells were washed.
(§3) The CD22-Fc chimera employed was produced as described in Blixt et al. (J. Biol. Chem. 278: 31007-19 (2003)) and diluted to 0.1 mg/ml into HBSS (with 5 mg/ml BSA and 1 mM EDTA). An F(ab′)2 Fragment Goat anti-Human IgG (Jackson Immunoresearch) (0.066 mg/ml) was mixed and allowed to complex with Peroxidase conjugated F(AB′)2 Fragment Rabbit anti Goat F(ab′)2 specific (0.010 mg/ml) for 15 min. CD22-Fc (1.5 ml) was added to 1 ml of the pre-complexed solution and allowed to further associate with complexes in that solution for 15 min. The inhibitor of interest was diluted into HBSS. Twenty-five microliters of the inhibitor and 25 ul of the CD22Fc complex were added to each well and the plates were incubated for 30 min at 37° C. The plates were then washed 4 times with 200 ul of HBSS. Wells were developed with 50 ul of 1 mg/ml OPD (Sigma), 0.03% H2O2 in 50 mM phosphate/citrate, pH 5.0. The reaction was stopped with 50 ul of 2.5 M H2SO4 and the optical density at 450 nm (OD450) was measured.

human CD22 = target: T2, human CD22 (Homo sapiens, UniProt P20273); test: ELISA inhibition assay: CD22-Fc chimera binding to immobilized NeuAc-LN; details: for IC50: inhibition of CD22-Fc binding to immobilized NeuAcα2,6LacNAc, read-out: IC 50 value hCd22; for rIP hCd22 (relative inhibitory potency): relative to NeuAc-LN = 1
T2 construct: made in house
Experimental: as §1, §2, §3

[1] = target: T3, cell surface CD22 (hCD22) on Daudi cells (Homo sapiens, UniProt P20273); test: Inhibition of NeuAc-LN-PAA probe binding to sialidase-treated Daudi cells; assay type: cell-based; details: inhibitor 10, 30, 200 uM
T3 construct: endogenous in cells; host or cells: Daudi cells (sialidase-treated)
T3 sequence (P20273 20-847): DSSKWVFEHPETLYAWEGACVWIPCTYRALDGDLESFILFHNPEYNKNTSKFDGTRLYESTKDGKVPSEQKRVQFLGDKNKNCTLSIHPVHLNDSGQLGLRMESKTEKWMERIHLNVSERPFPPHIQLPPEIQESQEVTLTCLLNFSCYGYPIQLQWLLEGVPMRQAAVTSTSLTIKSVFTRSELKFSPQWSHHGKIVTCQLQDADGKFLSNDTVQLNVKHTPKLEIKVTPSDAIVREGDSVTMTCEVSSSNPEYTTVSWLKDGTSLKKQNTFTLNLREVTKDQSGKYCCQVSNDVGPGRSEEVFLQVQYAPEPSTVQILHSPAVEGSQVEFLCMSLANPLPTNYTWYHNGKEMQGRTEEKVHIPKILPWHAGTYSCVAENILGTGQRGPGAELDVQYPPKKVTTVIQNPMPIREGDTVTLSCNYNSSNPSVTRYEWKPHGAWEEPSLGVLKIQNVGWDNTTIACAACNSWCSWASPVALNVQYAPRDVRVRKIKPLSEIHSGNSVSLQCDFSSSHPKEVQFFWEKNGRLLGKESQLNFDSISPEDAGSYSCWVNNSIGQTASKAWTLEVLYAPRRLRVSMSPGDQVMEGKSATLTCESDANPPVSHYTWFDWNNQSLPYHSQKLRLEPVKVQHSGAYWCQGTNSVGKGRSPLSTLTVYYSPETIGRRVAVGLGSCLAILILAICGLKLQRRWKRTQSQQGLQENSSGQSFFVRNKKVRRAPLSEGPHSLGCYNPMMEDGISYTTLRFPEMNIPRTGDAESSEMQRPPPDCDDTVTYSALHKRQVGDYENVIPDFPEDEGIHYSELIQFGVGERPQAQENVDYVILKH
Experimental: FIG. 2A-B illustrate inhibition of multivalent sialoside probe binding to cell surface CD22 by potent biphenyl (BP) derivatives. FIG. 2A provides the results for murine splenocytes. Murine splenocytes were mock-treated (grey shaded peak) or actually treated with A. ureafaciens sialidase to cleave sialic acid-containing glycans from cell surfaces and thereby ‘unmask’ surface CD22. The cells were then incubated with NeuGc-LN-PAA alone (rightmost Black line, where PAA refers to a polyacrylamide carrier) or in the presence of 5 uM (light line to the right of center), 200 uM (central grey line) or 2 mM (leftmost dark grey line) of the indicated inhibitor for 1.5 h on ice, then washed. Bound probe was detected with streptavidin-PE, and B cells stained with anti-B220. Data are for B220+ cells only. FIG. 2B provides results for Daudi Cells. […] Bound probe was detected with streptavidin-PE and measured by flow cytometry. […]
Inhibition of Probe-Binding to B cells by Sialic Acid Inhibitors. […] These “cis” glycan ligands can mask binding of sialic acid ligands provided in “trans.” After treatment with sialidase, inhibition of B cell binding by monovalent BPC-NeuAc-LN and BPA-NeuGc-LN was detected for multivalent polyacrylamide (PAA) sialoside probes derivatized with NeuAc-LN (hCD22) or NeuGc-LN (mCD22) (FIG. 2).

Siglec 10 = test: PAA probe binding to Siglec 10; details: result in words
From the text: Building on the binding studies described above, polyacrylamide (PAA) probes containing the BPA-NeuGc-LN or BPC-NeuAc-LN sialosides were synthesized and tested for binding to CD22. […] Siglec 10 another B cell lectin, however, binds well to the NeuGc-LN glycan, but in contrast to CD22, only weakly to the high molecular weight BPA derivative.

[2] = target: T4, CD22 on asialo K20 cells (BJAB subclone) (Homo sapiens, UniProt P20273); test: Self-assembled IgM complex binding to asialo cells
T4 sequence (P20273 20-847): T3 sequence (P20273 20-847)
Experimental: Following washing, bound IgM was detected with FITC-labeled anti-Ig and read by flow cytometry. […] Free NP, the heterobifunctional ligand, and the IgM anti-NP were all added to BJAB cells and allowed to incubate on ice before washing. Bound IgM was detected as described for FIG. 5B. […] After binding of a self-assembled complex of NP-BPC and Alexa Fluor-labeled anti-NP IgM antibodies to BJAB cells on ice, the cells were washed and allowed to internalize the complex for the indicated period of time. After a brief acid wash to remove any surface IgM, internalized IgM was quantified by flow cytometry.
Cell Binding. BJAB cells, incubated with or without exogenous sialic acid (4 mM) for 2 days, were resuspended in HBSS/BSA at a density of 1×10^6 cells/ml and the varying amounts of IgM and the BPC-NP construct shown in FIG. 7 were added to the cells and allowed to bind for 1 hr on ice. Cells were then washed with 1 ml of HBSS/BSA and then incubated with FITC-labeled anti-IgM for 30 min on ice. After washing again, the cells were read by flow cytometry.
To further evaluate the ability for the IgM complex to bind to CD22 on B cells, cells deficient in cell-surface sialic acid were used.

[3] = target: T5, CD22Fc chimeras (hCD22Fc) (Homo sapiens, UniProt P20273); test: ELISA-type assay of IgM/NP-BPC/CD22 complex formation; assay type: binding
T5 construct: made in house; host or cells: COS cells
Experimental: FIG. 7A-7C illustrate a self-assembling B cell targeting complex as one aspect of the invention. […] CD22-Fc chimeras were immobilized onto protein A coated wells. After washing, the indicated amount of either NP, or NP-BPC was added along with the anti-NP IgM was added and allowed to bind for 30 min at room temperature. After washing, bound IgM was detected with HRP-conjugated anti-IgM and developed with OPD. Data are the average ±S.D. of triplicates, and are representative of 3 independent experiments.
ELISA-Type Assay. High Binding microtiter plates were coated with neutravidin (1 ug/50 ul/well in Na Bicarbonate pH 9.5) overnight at 4° C., then washed with 200 ul of HBSS/BSA. Culture supernatants containing hCD22Fc chimera were incubated in the wells for 2 h at room temperature. Wells were then washed and a mixture of IgM antibodies that recognize nitrophenyl groups (anti-NP antibodies) and 50 ul of varying concentrations of the BPC-Siaα2-6LN heterobifunctional ligand were added. The plates were allowed to bind for 30 min. […]
CD22Fc chimeras were immobilized onto microtiter plates and overlaid with mixtures of IgM anti-NP and NP or NP-BPC. Following washing, bound IgM complex was detected with HRP-conjugated anti-Ig antibodies. CD22-dependent binding of the complex was detected, with maximal IgM complex binding achieved when using less than 200 nM NP-BPC.

[4] = target: T6, CD22 on sialylated (native) BJAB cells (Homo sapiens, UniProt P20273); test: Self-assembled IgM complex binding to sialylated BJAB cells; assay type: cell-based; details: high concentration of cis ligands
T6 construct: endogenous in cells; host or cells: BJAB cells (incl. K20 subclone)
T6 sequence (P20273 20-847): T3 sequence (P20273 20-847)

BJAB cells = test: Measurement of probe internalization; assay type: cell-based, human; details: caveolin inhibitor
Experimental: To generate the data shown in FIG. 5A, BJAB cells grown in the presence of sera and supplemented with NeuAc were incubated with the high molecular weight BPC-NeuAc-LN-PAA (light and heavy lines) or LN-PAA (Shaded) probes for 1.5 h on ice, followed by CyChrome labeled streptavidin for 45 min on ice. After washing, the cells were then incubated at 37° C. for the indicated period of time. Following this incubation, cells were washed with HBSS/BSA (shaded peak and heavy line) or RPMI pH 2.5 (light line). Bound or internalized probe was detected by flow cytometry. To generate the data shown in FIG. 5B, cells were washed with RPMI:Water (1/1) and then incubated for 1 hr in media with or without potassium. After pre-chilling on ice, cells were incubated in the corresponding media with the BPC-NeuAc-LN-PAA probe and then internalization was measured as above. Data are the average of two independent experiments.
Measurement of probe internalization. BJAB cells (2×10^6 cell/ml) were labeled with the PAA probe and streptavidin as above. Following staining, aliquots of 100 ul of the cell suspension were placed on ice or at 37° C. for selected periods of time. […]
Similarly, the ability for B cells to endocytose the PAA probes was determined. […] The remaining fluorescence as measured by flow cytometry as a measure of the amount of internalized probe.

T1 sequence (P35329 with tags, fused parts or gaps limits assumed): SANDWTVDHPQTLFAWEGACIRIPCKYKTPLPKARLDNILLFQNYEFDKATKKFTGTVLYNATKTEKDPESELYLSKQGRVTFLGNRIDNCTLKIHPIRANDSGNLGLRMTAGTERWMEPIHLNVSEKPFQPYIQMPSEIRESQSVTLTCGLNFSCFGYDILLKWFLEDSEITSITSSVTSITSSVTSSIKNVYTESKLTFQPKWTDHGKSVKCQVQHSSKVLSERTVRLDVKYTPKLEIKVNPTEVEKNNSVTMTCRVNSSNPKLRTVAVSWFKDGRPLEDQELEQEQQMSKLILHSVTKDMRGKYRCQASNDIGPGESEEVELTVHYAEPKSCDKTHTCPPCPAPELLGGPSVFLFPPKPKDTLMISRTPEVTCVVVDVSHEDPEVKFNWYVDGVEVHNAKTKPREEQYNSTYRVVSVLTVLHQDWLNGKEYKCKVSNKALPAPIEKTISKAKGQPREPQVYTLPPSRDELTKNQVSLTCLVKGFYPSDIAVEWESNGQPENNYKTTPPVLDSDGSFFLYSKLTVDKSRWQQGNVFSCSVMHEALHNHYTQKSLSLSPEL
T2 sequence (P20273 with tags, fused parts or gaps limits assumed): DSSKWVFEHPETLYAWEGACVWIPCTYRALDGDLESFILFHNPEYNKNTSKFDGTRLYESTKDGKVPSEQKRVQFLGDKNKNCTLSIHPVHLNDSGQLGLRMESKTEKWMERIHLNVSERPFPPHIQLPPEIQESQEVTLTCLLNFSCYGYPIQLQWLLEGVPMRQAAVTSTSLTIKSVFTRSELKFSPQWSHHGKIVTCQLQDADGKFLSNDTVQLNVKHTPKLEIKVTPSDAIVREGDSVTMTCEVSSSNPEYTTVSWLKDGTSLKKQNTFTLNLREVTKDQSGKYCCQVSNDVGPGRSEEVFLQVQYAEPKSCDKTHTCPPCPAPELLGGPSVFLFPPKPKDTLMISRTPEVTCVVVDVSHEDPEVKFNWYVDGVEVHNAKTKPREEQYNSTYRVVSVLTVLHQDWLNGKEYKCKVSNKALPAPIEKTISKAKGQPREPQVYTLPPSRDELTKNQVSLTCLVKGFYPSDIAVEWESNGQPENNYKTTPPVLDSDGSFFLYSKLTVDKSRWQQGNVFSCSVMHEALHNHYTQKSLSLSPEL
T5 sequence (P20273 with tags, fused parts or gaps limits assumed): as above

Molecule	IC50 (mouse CD22) [µM]	rIP mCd22 (relative inhibitory potency) (mouse CD22)	IC50 (human CD22)	rIP hCd22 (relative inhibitory potency) (human CD22)	inhibition of NeuAc-LN-PAA probe binding [1]	binding to Siglec 10 (Siglec 10)	concentration at maximal binding of the complex [2] [µM]	concentration for maximal IgM complex binding [3]	binding to CD22 on sialylated BJAB cells [4]	effect on probe internalization (BJAB cells)	inhibition of Siglec binding to immobilized sialoside (human CD22; result in words)
9-biphenylcarbonyl (BPC)-Neu5Acα2-6Galβ1-4GlcNAc [BPC-NeuAcLN]	242	0.91	2 µM and 2.2 µM	100	complete inhibition						
CC(=O)NC1C(O)OC(CO)C(OC2OC(COC3(C(=O)O)CC(O)C(NC(=O)CO)C(C(O)C(O)CO)O3)C(O)C(O)C2O)C1O (stereo not drawn) [NeuGc-LN, NeuGcα2,6Galβ1-4GlcNAc]	221	1	260 µM	0.85		binds well					
CC(=O)N[C@H]1[C@H](OCCNC(=O)Cc2ccc(O)c([N+](=O)[O-])c2)O[C@H](CO)[C@@H](O[C@@H]2O[C@H](CO[C@]3(C(=O)O)C[C@H](O)[C@@H](NC(C)=O)[C@H]([C@H](O)[C@H](O)CNC(=O)c4ccc(-c5ccccc5)cc4)O3)[C@H](O)[C@H](O)[C@H]2O)[C@@H]1O [NP-BPC, [(4′-hydroxyl-3′-nitrophenylacetamido)-ethyl-β-]-[[5-Acetamido-9-[(1,1′-biphenyl)-4-carboxamido]-3,5,9,trideoxy-D-glycero-D-galacto-2-nonulo-pyranosyl-onate-α2-6-O-D-galactopyranosyl-β1-4]]-D-2-acetamido-2-deoxy-glucopyranoside]							0.16	less than 200 nM	bound efficiently		
CC(=O)NC1C(O)CC(O)(C(=O)O)OC1C(O)C(O)CNC(=O)c1ccc(-c2ccccc2)cc1 [BPC-NeuAc, 5-Acetamido-9-[(1,1′-biphenyl)-4-carboxamido]-3,5,9-trideoxy-D-glycero-D-galacto-2-nonulo-pyranosyl-onate]	1500	0.15	35 µM	6.3							
CC(=O)N[C@@H]1[C@@H](O)[C@H](O[C@@H]2O[C@H](CO[C@]3(C(=O)O)C[C@H](O)[C@@H](NC(C)=O)[C@H]([C@H](O)[C@H](O)CO)O3)[C@H](O)[C@H](O)[C@H]2O)[C@@H](CO)O[C@H]1O [NeuAc-LN, NeuAcα2-6Galβ1-4GlcNAc]	> 2000	<0.1	200 µM and 220 µM	1							
C[C@@H]1[C@H](O)[C@@H](C)/C=C/C=C/CC/C=C/C=C/C=C/C=C/C(O[C@H]2O[C@H](C)[C@@H](O)[C@H](N)[C@@H]2O)CC2O[C@](O)(CC(O)C(O)CCC(O)CC(O)CC(O)CC(=O)O[C@H]1C)CC(O)C2C(=O)O (stereo partly drawn) [nystatin]										did not inhibit	
CC(=O)N[C@H]1[C@H]([C@H](O)[C@H](O)CO)OC(O)(C(=O)O)C[C@@H]1O (stereo partly drawn) [NeuAc, N-acetylneuraminic acid]	> 2000	<0.1	> 2000 µM	<0.1							no inhibition
